Measured values: ChEMBL document CHEMBL5154741, “Antibacterial alkylguanidino ureas: Molecular simplification approach, searching for membrane-based MoA” (Eur J Med Chem, 2022)
Values after ≈ are worked out from the molar mass of the structure shown. Active and inactive are the calls of the source. The calls are words filed in the database; no cut-off is given here.

Columns and labels:
Cell membrane [1] = assay: Disruption of membrane integrity in Bacillus subtilis ATCC 6633 assessed as increase in PI positive cells at 16 ug/ml measured after 1 hr by SYTO9/PI staining based confocal laser scanning microscope analysis; format: subcellular; details: dose 16.0 µg/ml
Staphylococcus aureus = assay: Antibacterial activity against Staphylococcus aureus ATCC 25923 assessed as bacterial growth inhibition incubated for 18 hrs by micro-dilution broth method; format: functional
Cell membrane [2] = assay: Disruption of membrane integrity in Pseudomonas aeruginosa ATCC 27853 assessed as increase in PI uptake at 16 ug/ml measured every 15 mins for 6 hrs by SYTO9/PI staining based fluorometric analysis; details: dose 16.0 µg/ml
Cell membrane [3] = assay: Disruption of membrane integrity in Bacillus subtilis ATCC 6633 assessed as increase in PI uptake at 16 ug/ml measured after 15 mins by SYTO9/PI staining based fluorometric analysis; details: dose 16.0 µg/ml
[4] = Hemolytic activity against human RBC at 16 ug/ml incubated for 30 mins relative to control; format: toxicity, cell-based, Erythrocyte; details: human red blood cells (erythrocytes), at 16 µg/mL, read-out: Activity
Cell membrane [5] = assay: Disruption of membrane integrity in Acinetobacter baumannii ATCC 17978 assessed as increase in PI positive cells at 16 ug/ml measured after 1 hr by SYTO9/PI staining based confocal laser scanning microscope analysis; details: dose 16.0 µg/ml
Cell membrane [6] = assay: Disruption of membrane integrity in Acinetobacter baumannii ATCC 17978 assessed as increase in PI uptake at 16 ug/ml measured after 1 hr by SYTO9/PI staining based fluorometric analysis; format: subcellular; details: dose 16.0 µg/ml
Klebsiella pneumoniae = assay: Antibacterial activity against pan drug-resistant Klebsiella pneumoniae S1-081Rb assessed as bacterial growth inhibition incubated for 18 hrs by CLSI based micro-dilution broth method; format: functional
Lipid bilayer [7] = assay: Binding affinity to bacterial membrane mimic POPG large unilamellar vesicle assessed as hyperchromic shift at 125 uM measured after 1 hr by UV-Vis spectrophotometric analysis
Cell membrane [8] = assay: Disruption of membrane integrity in Escherichia coli MG1655 assessed as increase in PI uptake at 16 ug/ml measured every 15 mins for 6 hrs by SYTO9/PI staining based fluorometric analysis; details: dose 16.0 µg/ml
[9] = Hemolytic activity against human RBC at 2 ug/ml incubated for 30 mins (reference value: 0%); format: toxicity, cell-based, Erythrocyte; details: human red blood cells (erythrocytes), at 2 µg/mL, read-out: Activity
Pseudomonas aeruginosa = assay: Antibacterial activity against Pseudomonas aeruginosa ATCC 27853 assessed as bacterial growth inhibition incubated for 18 hrs by micro-dilution broth method; format: functional
[10] = Hemolytic activity against human RBC at 64 ug/ml incubated for 30 mins (reference value: 0%); format: toxicity, cell-based, Erythrocyte; details: human red blood cells (erythrocytes), at 64 µg/mL, read-out: Activity
Cell membrane [11] = assay: Disruption of membrane integrity in Pseudomonas aeruginosa ATCC 27853 assessed as increase in PI positive cells at 16 ug/ml measured after 1 hr by SYTO9/PI staining based confocal laser scanning microscope analysis; format: subcellular; details: dose 16.0 µg/ml
Enterococcus faecalis = assay: Antibacterial activity against Enterococcus faecalis ATCC 19433 assessed as bacterial growth inhibition incubated for 18 hrs by micro-dilution broth method; format: functional
[12] = Apparent permeability of the compound across bacterial inner membrane mimic PC-phospholipids in PBS buffer at pH 7.4 incubated for 5 hrs by PAMPA based UV-Vis spectrophotometric analysis; format: ADME
Bacillus subtilis = assay: Antibacterial activity against Bacillus subtilis ATCC 6633 assessed as bacterial growth inhibition incubated for 18 hrs by CLSI based micro-dilution broth method; format: functional
Cell membrane [13] = assay: Disruption of membrane integrity in Enterococcus faecalis ATCC 19433 assessed as increase in PI positive cells at 16 ug/ml measured after 1 hr by SYTO9/PI staining based confocal laser scanning microscope analysis; format: subcellular; details: dose 16.0 µg/ml
[14] = Apparent permeability of the compound across bacterial inner membrane mimic pure POPG in PBS buffer assessed as membrane retention at pH 7.4 incubated for 5 hrs by PAMPA based UV-Vis spectrophotometric analysis; format: ADME, cell membranes; details: pH 7.4, 5 h
Cell membrane [15] = assay: Disruption of membrane integrity in Staphylococcus aureus ATCC 25923 assessed as increase in PI uptake at 16 ug/ml measured every 15 mins for 6 hrs by SYTO9/PI staining based fluorometric analysis; format: subcellular; details: dose 16.0 µg/ml
Cell membrane [16] = assay: Disruption of membrane integrity in Enterococcus faecalis ATCC 19433 assessed as increase in PI uptake at 16 ug/ml measured after 15 mins by SYTO9/PI staining based fluorometric analysis; details: dose 16.0 µg/ml
[17] = Apparent permeability of the compound across bacterial inner membrane mimic POPE/POPG (6:4) in PBS buffer assessed as membrane retention at pH 7.4 incubated for 5 hrs by PAMPA based UV-Vis spectrophotometric analysis; format: ADME, cell membranes; details: pH 7.4, 5 h
Cell membrane [18] = assay: Disruption of membrane integrity in Pseudomonas aeruginosa ATCC 27853 assessed as increase in PI uptake at 16 ug/ml measured after 1 hr by SYTO9/PI staining based fluorometric analysis; format: subcellular; details: dose 16.0 µg/ml
Cell membrane [19] = assay: Disruption of membrane integrity in Bacillus subtilis ATCC 6633 assessed as increase in PI uptake at 16 ug/ml measured after 1 hr by SYTO9/PI staining based fluorometric analysis; format: subcellular; details: dose 16.0 µg/ml
Cell membrane [20] = assay: Disruption of membrane integrity in Enterococcus faecalis ATCC 19433 assessed as increase in PI uptake at 16 ug/ml measured after 1 hr by SYTO9/PI staining based fluorometric analysis; format: subcellular; details: dose 16.0 µg/ml
Cell membrane [21] = assay: Disruption of membrane integrity in Staphylococcus aureus ATCC 25923 assessed as increase in PI uptake at 16 ug/ml measured after 1 hr by SYTO9/PI staining based fluorometric analysis; details: dose 16.0 µg/ml
[22] = Apparent permeability of the compound across bacterial inner membrane mimic POPE/POPG (6:4) in PBS buffer at pH 7.4 incubated for 5 hrs by PAMPA based UV-Vis spectrophotometric analysis; format: ADME
Acinetobacter baumannii = assay: Antibacterial activity against Acinetobacter baumannii ATCC 17978 assessed as bacterial growth inhibition incubated for 18 hrs by micro-dilution broth method; format: functional
Lipid bilayer [23] = assay: Binding affinity to bacterial membrane mimic POPG large unilamellar vesicle assessed as bathochromic shift at 125 uM measured at t = 0 by UV-Vis spectrophotometric analysis
[24] = Hemolytic activity against human RBC at 1 ug/ml incubated for 30 mins (reference value: 0%); format: toxicity, cell-based, Erythrocyte; details: human red blood cells (erythrocytes), at 1 µg/mL, read-out: Activity
Cell membrane [25] = assay: Disruption of membrane integrity in Acinetobacter baumannii ATCC 17978 assessed as increase in PI uptake at 16 ug/ml measured after 15 mins by SYTO9/PI staining based fluorometric analysis; details: dose 16.0 µg/ml
[26] = Apparent permeability of the compound across bacterial inner membrane mimic PC-phospholipids in PBS buffer assessed as membrane retention at pH 7.4 incubated for 5 hrs by PAMPA based UV-Vis spectrophotometric analysis; format: ADME, cell membranes; details: pH 7.4, 5 h
[27] = Hemolytic activity against human RBC at 8 ug/ml incubated for 30 mins (reference value: 0%); format: toxicity, cell-based, Erythrocyte; details: human red blood cells (erythrocytes), at 8 µg/mL, read-out: Activity
Cell membrane [28] = assay: Disruption of membrane integrity in Staphylococcus aureus ATCC 25923 assessed as increase in PI positive cells at 16 ug/ml measured after 1 hr by SYTO9/PI staining based confocal laser scanning microscope analysis; format: subcellular; details: dose 16.0 µg/ml

Structure (SMILES)	Activity (Cell membrane [1])	MIC (Staphylococcus aureus) [µg/mL]	Activity (Cell membrane [2])	Activity (Cell membrane [3])	hemolysis at 0.5 h, 16 ug/ml [4] [%]	Activity (Cell membrane [5])	Activity (Cell membrane [6])	MBC (Klebsiella pneumoniae) [µg/mL]	MIC (Klebsiella pneumoniae) [µg/mL]	Activity (Lipid bilayer [7])	Activity (Cell membrane [8])	hemolysis at 0.5 h, 2 ug/ml [9] [%]	MIC (Pseudomonas aeruginosa) [µg/mL]	hemolysis at 0.5 h, 64 ug/ml [10] [%]	Activity (Cell membrane [11])	MIC (Enterococcus faecalis) [µg/mL]	Papp at 5 h [12] [×10⁻⁶ cm/s]	MIC (Bacillus subtilis) [µg/mL]	Activity (Cell membrane [13])	R% [14] [%]	also measured
N=C(NCCCCCCCCNC(N)=O)NCC1CC1.O=C(O)C(F)(F)F	Active	1	Active	Active	0	Active	Active	4	4	Active	Active	0	16	0	Active	1	3.17	1	Active	16	Activity (Cell membrane [15]): Active; Activity (Cell membrane [16]): Active; R% [17]: 3.2%; Activity (Cell membrane [18]): Active; Activity (Cell membrane [19]): Active; Activity (Cell membrane [20]): Active; Activity (Cell membrane [21]): Active; Papp at 5 h [22]: 3.48 ×10⁻⁶ cm/s; MIC (Acinetobacter baumannii): 16 µg/mL; Activity (Lipid bilayer [23]): Active; hemolysis at 0.5 h, 1 ug/ml [24]: 0%; Activity (Cell membrane [25]): Active; R% [26]: 7.7%; hemolysis at 0.5 h, 8 ug/ml [27]: 0%; Activity (Cell membrane [28]): Active
CCCCCCCCN(CCCCCCCCNC(=N)NCC1CC1)C(=O)N(CCCCCCNC(=N)NCC1CC1)CCCCCCNC(=N)NCC1CC1	Active	2 (≈ 2.54 µM)	Active	Active	2.4	Active	Active	8 (≈ 10.2 µM)	8 (≈ 10.2 µM)	Active	Active	0	16 (≈ 20.3 µM)	46.4	Active	0.5 (≈ 0.636 µM)	4.79	0.5 (≈ 0.636 µM)	Active	63	Activity (Cell membrane [15]): Active; Activity (Cell membrane [16]): Active; R% [17]: 65.2%; Activity (Cell membrane [18]): Active; Activity (Cell membrane [19]): Active; Activity (Cell membrane [20]): Active; Activity (Cell membrane [21]): Active; Papp at 5 h [22]: 0.13 ×10⁻⁶ cm/s; MIC (Acinetobacter baumannii): 16 µg/mL (≈ 20.3 µM); Activity (Lipid bilayer [23]): Active; hemolysis at 0.5 h, 1 ug/ml [24]: 0%; Activity (Cell membrane [25]): Active; R% [26]: 0%; hemolysis at 0.5 h, 8 ug/ml [27]: 1.2%; Activity (Cell membrane [28]): Active
N=C(N)NCCCCCCCCN(CCCCCCCCNC(=N)NCC1CC1)C(=O)N(CCCCCCCCNC(=N)NCC1CC1)CCCCCCCCNC(=N)NCC1CC1.O=C(O)C(F)(F)F	Active	0.5	Active	Active	1.1	Active	Active	2	2	Active	Active	0	8	8.1	Active	1	1.85	0.5	Active	56	Activity (Cell membrane [15]): Active; Activity (Cell membrane [16]): Active; R% [17]: 40.8%; Activity (Cell membrane [18]): Active; Activity (Cell membrane [19]): Active; Activity (Cell membrane [20]): Active; Activity (Cell membrane [21]): Active; Papp at 5 h [22]: 0.3 ×10⁻⁶ cm/s; MIC (Acinetobacter baumannii): 4 µg/mL; Activity (Lipid bilayer [23]): Active; hemolysis at 0.5 h, 1 ug/ml [24]: 0%; Activity (Cell membrane [25]): Active; R% [26]: 0%; hemolysis at 0.5 h, 8 ug/ml [27]: 0%; Activity (Cell membrane [28]): Active
